Measurements published in patent US7709471B2, “Compounds” (AstraZeneca AB, priority 2006, dated 2010).

Biological target: recombinant Plk1 (Homo sapiens, UniProt P53350)
Assay: In Vitro Plk1 Enzyme Assay (SPA, GST-Cdc25C phosphorylation)
Format: biochemical
Settings: ATP 64 nM, 90 minutes, read-out: IC50 (Plk1 enzyme inhibition)

Chain of recombinant Plk1 (P53350 whole entry): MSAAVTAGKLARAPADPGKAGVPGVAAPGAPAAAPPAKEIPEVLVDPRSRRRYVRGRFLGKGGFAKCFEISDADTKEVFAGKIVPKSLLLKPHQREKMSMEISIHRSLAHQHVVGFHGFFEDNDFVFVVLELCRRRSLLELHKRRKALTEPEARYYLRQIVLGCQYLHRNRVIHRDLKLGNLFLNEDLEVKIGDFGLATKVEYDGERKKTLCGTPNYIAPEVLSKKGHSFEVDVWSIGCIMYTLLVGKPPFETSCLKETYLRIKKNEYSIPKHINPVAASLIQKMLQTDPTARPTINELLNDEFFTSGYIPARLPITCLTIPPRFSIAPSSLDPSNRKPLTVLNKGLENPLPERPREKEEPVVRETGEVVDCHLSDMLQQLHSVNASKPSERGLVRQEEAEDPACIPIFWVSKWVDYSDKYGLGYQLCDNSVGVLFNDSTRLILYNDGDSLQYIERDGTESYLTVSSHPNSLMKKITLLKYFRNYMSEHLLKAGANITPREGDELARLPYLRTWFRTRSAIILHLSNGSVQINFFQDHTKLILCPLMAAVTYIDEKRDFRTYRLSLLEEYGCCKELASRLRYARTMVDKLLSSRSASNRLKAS

| IC50 [µM] | Compound |
| --- | --- |
| < 100 | CN1C(=O)CCN(C2CCCC2)c2nc(Nc3cccc(CNC(=O)OC(C)(C)C)c3)ncc21 [Example 136, tert-butyl N-[[3-[(6-cyclopentyl-2-methyl-3-oxo-2,6,8,10-tetrazabicyclo[5.4.0]undeca-8,10,12-trien-9-yl)amino]phenyl]methyl]carbamate] |
| < 100 | CN1C(=O)c2cccc(Nc3ncc4c(n3)N(C3CCCC3)CCC(=O)N4C)c2C1=O [Example 137, 4-[(6-cyclopentyl-2-methyl-3-oxo-2,6,8,10-tetrazabicyclo[5.4.0]undeca-8,10,12-trien-9-yl)amino]-2-methyl-isoindole-1,3-dione] |
| < 1 | COc1ccccc1Nc1ncc2c(n1)N(C1CCCC1)CCC(=O)N2C [Example 139, 6-cyclopentyl-9-[(2-methoxyphenyl)amino]-2-methyl-2,6,8,10-tetrazabicyclo[5.4.0]undeca-8,10,12-trien-3-one] |
| < 100 | CCOc1ccccc1Nc1ncc2c(n1)N(C1CCCC1)CCC(=O)N2C [Example 140, 6-cyclopentyl-9-[(2-ethoxyphenyl)amino]-2-methyl-2,6,8,10-tetrazabicyclo[5.4.0]undeca-8,10,12-trien-3-one] |
| < 100 | CSc1ccccc1Nc1ncc2c(n1)N(C1CCCC1)CCC(=O)N2C [Example 141, 6-cyclopentyl-2-methyl-9-[(2-methylsulfanylphenyl)amino]-2,6,8,10-tetrazabicyclo[5.4.0]undeca-8,10,12-trien-3-one] |
| < 0.3 | CN1C(=O)CCN(C2CCCC2)c2nc(Nc3ccccc3O)ncc21 [Example 142, 6-cyclopentyl-9-[(2-hydroxyphenyl)amino]-2-methyl-2,6,8,10-tetrazabicyclo[5.4.0]undeca-8,10,12-trien-3-one] |
| < 100 | CN1C(=O)CCN(C2CCCC2)c2nc(Nc3ccccc3C(=O)c3ccccc3)ncc21 [Example 144, 9-[(2-benzoylphenyl)amino]-6-cyclopentyl-2-methyl-2,6,8,10-tetrazabicyclo[5.4.0]undeca-8,10,12-trien-3-one] |
| < 100 | CN1C(=O)CCN(C2CCCC2)c2nc(Nc3ccccc3S(N)(=O)=O)ncc21 [Example 145, 2-[(6-cyclopentyl-2-methyl-3-oxo-2,6,8,10-tetrazabicyclo[5.4.0]undeca-8,10,12-trien-9-yl)amino]benzenesulfonamide] |
| < 100 | CN1C(=O)CCN(C2CCCC2)c2nc(Nc3ccccc3Oc3ccccc3)ncc21 [Example 146, 6-cyclopentyl-2-methyl-9-[(2-phenoxyphenyl)amino]-2,6,8,10-tetrazabicyclo[5.4.0]undeca-8,10,12-trien-3-one] |
| < 100 | CN1C(=O)CCN(C2CCCC2)c2nc(Nc3ccccc3Br)ncc21 [Example 147, 9-[(2-bromophenyl)amino]-6-cyclopentyl-2-methyl-2,6,8,10-tetrazabicyclo[5.4.0]undeca-8,10,12-trien-3-one] |
| < 100 | CN1C(=O)CCN(C2CCCC2)c2nc(Nc3ccccc3-c3ccccc3)ncc21 [Example 148, 6-cyclopentyl-2-methyl-9-[(2-phenylphenyl)amino]-2,6,8,10-tetrazabicyclo[5.4.0]undeca-8,10,12-trien-3-one] |
| < 100 | CN1C(=O)CCN(C2CCCC2)c2nc(Nc3ccccc3S(C)(=O)=O)ncc21 [Example 149, 6-cyclopentyl-2-methyl-9-[(2-methylsulfonylphenyl)amino]-2,6,8,10-tetrazabicyclo[5.4.0]undeca-8,10,12-trien-3-one] |
| < 1 | CC(C)c1ccccc1Nc1ncc2c(n1)N(C1CCCC1)CCC(=O)N2C [Example 150, 6-cyclopentyl-2-methyl-9-[(2-propan-2-ylphenyl)amino]-2,6,8,10-tetrazabicyclo[5.4.0]undeca-8,10,12-trien-3-one] |
| < 100 | CCCCc1ccccc1Nc1ncc2c(n1)N(C1CCCC1)CCC(=O)N2C [Example 151, 9-[(2-butylphenyl)amino]-6-cyclopentyl-2-methyl-2,6,8,10-tetrazabicyclo[5.4.0]undeca-8,10,12-trien-3-one] |
| < 100 | CN1C(=O)CCN(C2CCCC2)c2nc(Nc3ccccc3Oc3ccc(C(C)(C)C)cc3)ncc21 [Example 153, 6-cyclopentyl-2-methyl-9-[[2-(4-tert-butylphenoxy)phenyl]amino]-2,6,8,10-tetrazabicyclo[5.4.0]undeca-8,10,12-trien-3-one] |
| < 100 | CCNS(=O)(=O)c1ccccc1Nc1ncc2c(n1)N(C1CCCC1)CCC(=O)N2C [Example 154, 2-[(6-cyclopentyl-2-methyl-3-oxo-2,6,8,10-tetrazabicyclo[5.4.0]undeca-8,10,12-trien-9-yl)amino]-N-ethyl-benzenesulfonamide] |
| < 100 | CNS(=O)(=O)c1ccccc1Nc1ncc2c(n1)N(C1CCCC1)CCC(=O)N2C [Example 155, 2-[(6-cyclopentyl-2-methyl-3-oxo-2,6,8,10-tetrazabicyclo[5.4.0]undeca-8,10,12-trien-9-yl)amino]-N-methyl-benzenesulfonamide] |

| IC50 [µM] | Compound |
| --- | --- |
| < 100 | CN1C(=O)CCN(C2CCCC2)c2nc(Nc3ccccc3NCCN3CCOCC3)ncc21 [Example 156, 6-cyclopentyl-2-methyl-9-[[2-(2-morpholin-4-ylethylamino)phenyl]amino]-2,6,8,10-tetrazabicyclo[5.4.0]undeca-8,10,12-trien-3-one] |
| < 100 | CN1C(=O)CCN(C2CCCC2)c2nc(Nc3ccccc3Cc3ccccc3)ncc21 [Example 157, 9-[(2-benzylphenyl)amino]-6-cyclopentyl-2-methyl-2,6,8,10-tetrazabicyclo[5.4.0]undeca-8,10,12-trien-3-one] |
| < 100 | CN1C(=O)CCN(C2CCCC2)c2nc(Nc3ccccc3CN3CCOCC3)ncc21 [Example 160, 6-cyclopentyl-2-methyl-9-[[2-(morpholin-4-ylmethyl)phenyl]amino]-2,6,8,10-tetrazabicyclo[5.4.0]undeca-8,10,12-trien-3-one] |
| < 1 | COc1cccc(Nc2ncc3c(n2)N(C2CCCC2)CCC(=O)N3C)c1 [Example 161, 6-cyclopentyl-9-[(3-methoxyphenyl)amino]-2-methyl-2,6,8,10-tetrazabicyclo[5.4.0]undeca-8,10,12-trien-3-one] |
| < 1 | CCOc1cccc(Nc2ncc3c(n2)N(C2CCCC2)CCC(=O)N3C)c1 [Example 162, 6-cyclopentyl-9-[(3-ethoxyphenyl)amino]-2-methyl-2,6,8,10-tetrazabicyclo[5.4.0]undeca-8,10,12-trien-3-one] |
| < 100 | CSc1cccc(Nc2ncc3c(n2)N(C2CCCC2)CCC(=O)N3C)c1 [Example 163, 6-cyclopentyl-2-methyl-9-[(3-methylsulfanylphenyl)amino]-2,6,8,10-tetrazabicyclo[5.4.0]undeca-8,10,12-trien-3-one] |
| < 100 | CN1C(=O)CCN(C2CCCC2)c2nc(Nc3cccc(C#N)c3)ncc21 [Example 164, 3-[(6-cyclopentyl-2-methyl-3-oxo-2,6,8,10-tetrazabicyclo[5.4.0]undeca-8,10,12-trien-9-yl)amino]benzonitrile] |
| < 100 | CCc1cccc(Nc2ncc3c(n2)N(C2CCCC2)CCC(=O)N3C)c1 [Example 166, 6-cyclopentyl-9-[(3-ethylphenyl)amino]-2-methyl-2,6,8,10-tetrazabicyclo[5.4.0]undeca-8,10,12-trien-3-one] |
| < 100 | C#Cc1cccc(Nc2ncc3c(n2)N(C2CCCC2)CCC(=O)N3C)c1 [Example 168, 6-cyclopentyl-9-[(3-ethynylphenyl)amino]-2-methyl-2,6,8,10-tetrazabicyclo[5.4.0]undeca-8,10,12-trien-3-one] |
| < 100 | CN1C(=O)CCN(C2CCCC2)c2nc(Nc3cccc(C(=O)c4ccccc4)c3)ncc21 [Example 169, 9-[(3-benzoylphenyl)amino]-6-cyclopentyl-2-methyl-2,6,8,10-tetrazabicyclo[5.4.0]undeca-8,10,12-trien-3-one] |
| < 100 | CN1C(=O)CCN(C2CCCC2)c2nc(Nc3cccc(S(C)(=O)=O)c3)ncc21 [Example 172, 6-cyclopentyl-2-methyl-9-[(3-methylsulfonylphenyl)amino]-2,6,8,10-tetrazabicyclo[5.4.0]undeca-8,10,12-trien-3-one] |
| < 100 | CC(C)c1cccc(Nc2ncc3c(n2)N(C2CCCC2)CCC(=O)N3C)c1 [Example 174, 6-cyclopentyl-2-methyl-9-[(3-propan-2-ylphenyl)amino]-2,6,8,10-tetrazabicyclo[5.4.0]undeca-8,10,12-trien-3-one] |
| < 100 | CN1C(=O)CCN(C2CCCC2)c2nc(Nc3cccc(S(=O)(=O)N4CCOCC4)c3)ncc21 [Example 183, 6-cyclopentyl-2-methyl-9-[(3-morpholin-4-ylsulfonylphenyl)amino]-2,6,8,10-tetrazabicyclo[5.4.0]undeca-8,10,12-trien-3-one] |
| < 1 | CNC(=O)c1ccc(Nc2ncc3c(n2)N(C2CCCC2)CCC(=O)N3C)c(OCCOC)c1 [Example 196, 4-[(6-cyclopentyl-2-methyl-3-oxo-2,6,8,10-tetrazabicyclo[5.4.0]undeca-8,10,12-trien-9-yl)amino]-3-(2-methoxyethoxy)-N-methyl-benzamide] |
| < 0.3 | COc1cc(C(=O)NC2CCN(C)CC2)ccc1Nc1ncc2c(n1)N(CC(C)C)CCC(=O)N2C [Example 211, 3-methoxy-4-[[2-methyl-6-(2-methylpropyl)-3-oxo-2,6,8,10-tetrazabicyclo[5.4.0]undeca-7,9,11-trien-9-yl]amino]-N-(1-methyl-4-piperidyl)benzamide] |
| < 1 | COc1cc(C(=O)NC2CCN(C)CC2)ccc1Nc1ncc2c(n1)N(Cc1csc(C)n1)CCC(=O)N2C [Example 216, 3-methoxy-4-[[2-methyl-6-[(2-methyl1,3-thiazol-4-yl)methyl]-3-oxo-2,6,8,10-tetrazabicyclo[5.4.0]undeca-7,9,11-trien-9-yl]amino]-N-(1-methyl-4-piperidyl)benzamide] |
| < 0.3 | CC(C)N1CCC(=O)N(C)c2cnc(Nc3ccc(C(=O)NCC(C)(C)CN(C)C)cc3)nc21 [Example 222, N-(3-dimethylamino-2,2-dimethyl-propyl)-4-[(2-methyl-3-oxo-6-propan-2-yl-2,6,8,10-tetrazabicyclo[5.4.0]undeca-7,9,11-trien-9-yl)amino]benzamide] |
